Results on 26 molecules are retold here after patent US9593136B2 (priority 2011, dated 2017).

In brackets after ≈: the same amount, converted by molar mass. Like-named read-outs stand apart in the source and are kept apart here. Bounds are passed on as bounds.

One assay deals with M. tuberculosis Dxr (Mycobacterium tuberculosis, UniProt P9WNS1). Briefly: biochemical.
The next assay has as its system Mtb H37Rv (ATCC 27294). The assay can be described thus: microbe, parasite or virus in culture. Type of assay: cell-based, Mycobacterium tuberculosis. As to conditions: for MIC: Mycobacterium tuberculosis.
For another assay, the system named is Acinetobacter. Briefly: microbe, parasite or virus in culture. Type of assay: cell-based.
In a further assay the test system is E. coli k12. Briefly: microbe, parasite or virus in culture. Type of assay: cell-based.
A further assay relates to E. coli tolc. Briefly: microbe, parasite or virus in culture. Type of assay: cell-based.
Another assay relates to B. anthracis. The assay can be described thus: microbe, parasite or virus in culture. Type of assay: cell-based, Bacillus anthracis.
The next assay deals with E. faecalis. Briefly: microbe, parasite or virus in culture. The class given is cell-based.
Another assay has as its system S. aureus (MSSA). Briefly: microbe, parasite or virus in culture. The class given is cell-based.
The next assay concerns MRSA NRS 70. Briefly: microbe, parasite or virus in culture. The class given is cell-based, S. aureus.
Setting [1] is: read-out: Mtb MIC (ug/mL) (7H9).
The mark [2] stands for this setting: read-out: Mtb MIC (ug/mL) (GAST).

M. tuberculosis Dxr, sequence (P9WNS1 whole entry, looked up): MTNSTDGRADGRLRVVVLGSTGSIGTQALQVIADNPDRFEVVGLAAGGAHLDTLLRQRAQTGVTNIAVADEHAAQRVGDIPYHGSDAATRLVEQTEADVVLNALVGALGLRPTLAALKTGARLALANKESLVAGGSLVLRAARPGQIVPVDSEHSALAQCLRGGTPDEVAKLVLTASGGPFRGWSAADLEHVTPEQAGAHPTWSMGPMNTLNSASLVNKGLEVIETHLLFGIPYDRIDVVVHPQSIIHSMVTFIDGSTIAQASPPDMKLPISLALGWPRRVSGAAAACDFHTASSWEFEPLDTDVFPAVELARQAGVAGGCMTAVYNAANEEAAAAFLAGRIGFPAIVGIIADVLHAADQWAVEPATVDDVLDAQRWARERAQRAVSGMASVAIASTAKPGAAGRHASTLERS

As a reminder, the IC50 is the midpoint of a concentration-inhibition curve. `CC(=O)N(CCCP(=O)(O)O)OCCc1ccccc1` [Compound 3, Sodium hydrogen 3-(N-(phenethyloxy)acetamido)propylphosphonate] gave an IC50 against M. tuberculosis Dxr (IC50 (μM)) of 96.4 µM. This lies in the double-digit micromolar range.
On to `CC(=O)N(CCCP(=O)(O)O)OCc1ccc(C(C)C)cc1` [GSJ76], for which the MIC with Mtb H37Rv (ATCC 27294) (setting [1]) was 200 µg/mL (≈ 607 µM); in the assay with Mtb H37Rv (ATCC 27294) (setting [2]), 25 µg/mL (≈ 75.9 µM). For the same molecule, at M. tuberculosis Dxr (Mtb Dxr IC50 (ug/mL)), the IC50 was 54 µM.
For the molecule `CC(=O)N(O)CCCP(=O)(OC(C)OC(=O)c1ccccc1)OC(C)OC(=O)c1ccccc1` (stereo not drawn) [Compound 27], the “MIC Acinetobacter” value in the assay with Acinetobacter is 100 µg/mL (≈ 203 µM). In addition, in the assay with E. coli k12, the “MIC E. coli k12” value came to 50 µg/mL (≈ 101 µM). Further, in the assay on E. coli tolc, the “MIC E. coli tolc” value was determined as 50 µg/mL (≈ 101 µM). Moreover, the “MIC B. anthracis” value in the assay on B. anthracis was 50 µg/mL (≈ 101 µM). The “MIC E. faecalis” value in the assay with E. faecalis was greater than 200 µg/mL. Moreover, the “MIC S. aureus (MSSA)” value in the assay with S. aureus (MSSA) is greater than 200 µg/mL. Moreover, in the assay on MRSA NRS 70, the “MIC S. aureus (MRSA)” value was greater than 200 µg/mL. Moreover, in the assay on Mtb H37Rv (ATCC 27294), the “MIC M. tuberculosis (H37Rv)” value lay within 100 to 200 µg/mL.
Take `CCOP(=O)(CCCN(OCCc1ccc(C)cc1)C(C)=O)OCC` [GSJ82]: in the assay on Mtb H37Rv (ATCC 27294) (setting [1]), the MIC was no less than 400 µg/mL.
`O=C(C1CCCCC1)N(O)CCCP(=O)(O)O` [Compound 9, Sodium hydrogen 3-(N-hydroxycyclohexanecarboxamido)propylphosphonate] came in with an IC50 against M. tuberculosis Dxr (IC50 (μM)) of 57.8 µM.
Regarding `CC(=O)N(CCCP(=O)(OCOC(=O)C(C)(C)C)OCOC(=O)C(C)(C)C)OCCCCc1ccccc1` [GSJ89], the MIC with Mtb H37Rv (ATCC 27294) (setting [1]) was 12.5 µg/mL (≈ 22.4 µM); with Mtb H37Rv (ATCC 27294) (setting [2]), 6.25 to 12.5 µg/mL (≈ 11.2 to 22.4 µM).
As for `CC(=O)N(O)CCCCP(=O)(O)O` [GSJ54], the MIC in the assay with Mtb H37Rv (ATCC 27294) (read-out: Mtb MIC (ug/mL)) was greater than 200 µg/mL. Besides, 13.2 µM corresponded to half-maximal inhibition on M. tuberculosis Dxr (Mtb Dxr IC50 (ug/mL)) (IC50).
As for `CCOP(=O)(CCCN(OCc1cccc(Br)c1)C(C)=O)OCC` [GSJ115], the MIC in the assay on Mtb H37Rv (ATCC 27294) (read-out: Mtb MIC (ug/mL)) came out at 400 µg/mL (≈ 947 µM).
For the molecule `CCOP(=O)(CCCN(OCc1ccc2ccccc2c1)C(C)=O)OCC` [GSJ73], the MIC in the assay on Mtb H37Rv (ATCC 27294) (setting [1]) stood at 200 µg/mL (≈ 508 µM); in the assay on Mtb H37Rv (ATCC 27294) (setting [2]), 100 µg/mL (≈ 254 µM).
With `O=CN(O)CCCP(=O)(O)O` [Fosmidomycin, reference compound], the MIC was 100 µg/mL (≈ 546 µM) in the assay on Acinetobacter (Acinetobacter, read-out: MIC Acinetobacter); 12.5 µg/mL (≈ 68.3 µM) in the assay with E. coli k12 (Escherichia coli, K12, read-out: MIC E. coli k12); 6.25 µg/mL (≈ 34.1 µM) in the assay on E. coli tolc (Escherichia coli, read-out: MIC E. coli tolc); 0.78 µg/mL (≈ 4.26 µM) with B. anthracis (Bacillus anthracis, read-out: MIC B. anthracis); greater than 200 µg/mL in the assay on E. faecalis (Enterococcus faecalis, read-out: MIC E. faecalis); greater than 200 µg/mL in the assay with S. aureus (MSSA) (Staphylococcus aureus, MSSA, read-out: MIC S. aureus (MSSA)). The MIC in the assay on MRSA NRS 70 (Staphylococcus aureus, read-out: MIC S. aureus (MRSA)) was 200 µg/mL (≈ 1090 µM); in the assay with Mtb H37Rv (ATCC 27294) (read-out: MIC 7H9 (μg/mL)) it was greater than 500 µg/mL; with Mtb H37Rv (ATCC 27294) (read-out: MIC GAST/Fe (μg/mL)) it was greater than 500 µg/mL; in the assay with Mtb H37Rv (ATCC 27294) (read-out: MIC M. tuberculosis (H37Rv)), greater than 500 µg/mL. In addition, the “activity against B. anthracis (MIC)” value with B. anthracis is given as 0.78 lg/mL.
Regarding `CCOP(=O)(CCCN(OCc1ccc(OC(F)(F)F)cc1)C(C)=O)OCC` [GSJ110], in the assay on Mtb H37Rv (ATCC 27294) (read-out: Mtb MIC (ug/mL)), the MIC worked out at 400 µg/mL (≈ 936 µM).
Same read-out and setting: in the case of `CC(=O)N(CCCP(=O)(OCOC(=O)C(C)(C)C)OCOC(=O)C(C)(C)C)OCc1ccc(-c2ccccc2)cc1` [GSJ97] it was 12.5 µg/mL (≈ 21.1 µM).
On to `O=C(C1CCCCC1)N(O)CCCP(=O)([O-])O.[Na+]` [ERJ 116], for which the MIC in the assay with Mtb H37Rv (ATCC 27294) (setting [1]) and in the assay on Mtb H37Rv (ATCC 27294) (setting [2]) was greater than 200 µg/mL throughout. Besides, the IC50 against M. tuberculosis Dxr (Mtb Dxr IC50 (ug/mL)) is 57.8 µM.
On to `CCOP(=O)(CCCN(OCc1ccc(C)cc1)C(C)=O)OCC` [GSJ114], for which the MIC in the assay with Mtb H37Rv (ATCC 27294) (read-out: Mtb MIC (ug/mL)) is greater than 400 µg/mL.
Consider `CC(=O)N(CCCP(=O)(OCOC(=O)c1ccccc1)OCOC(=O)c1ccccc1)OCCCCc1ccccc1` [GSJ92], for which, in the assay on Mtb H37Rv (ATCC 27294) (setting [1]), the MIC turned out to be 25 µg/mL (≈ 41.8 µM).
With `CCOP(=O)(CCCN(OCc1ccc(-c2ccccc2C(=O)OC)cc1)C(C)=O)OCC` [GSJ112], in the assay on Mtb H37Rv (ATCC 27294) (read-out: Mtb MIC (ug/mL)), the MIC was determined as 400 µg/mL (≈ 838 µM).
Still for that read-out and setting: in the case of `CCOP(=O)(CCCN(OCc1ccc(Cl)c(Cl)c1)C(C)=O)OCC` [GSJ102] it was 200 µg/mL (≈ 485 µM); in that of `CCOP(=O)(CCCN(OCc1cccc(OC(F)(F)F)c1)C(C)=O)OCC` [GSJ109], 400 µg/mL (≈ 936 µM).
In the case of `CCCCCCOP(=O)(CCCN(O)C(C)=O)OCCCCCC` [Compound 21], the “MIC M. tuberculosis (H37Rv)” value against Mtb H37Rv (ATCC 27294) worked out at 100 µg/mL (≈ 274 µM).
For `NNC(=O)c1ccncc1` [Isoniazid, reference compound], the MIC came to 0.04 µg/mL (≈ 0.292 µM) with Mtb H37Rv (ATCC 27294) (read-out: MIC 7H9 (μg/mL)) and 0.02 µg/mL (≈ 0.146 µM) in the assay on Mtb H37Rv (ATCC 27294) (read-out: MIC GAST/Fe (μg/mL)).
Regarding `CC(=O)N(CCCP(=O)(O)O)OCCc1ccccc1` [GSJ78], the MIC in the assay with Mtb H37Rv (ATCC 27294) (read-out: Mtb MIC (ug/mL)) was greater than 200 µg/mL. Also, half-maximal inhibition at M. tuberculosis Dxr (Mtb Dxr IC50 (ug/mL)) (IC50) required 103 µM.
`O=C(Cc1ccccc1)N(O)CCCP(=O)(O)O` [Compound 7, Sodium hydrogen 3-(N-hydroxy-2-phenylacetamido)propylphosphonate] registered an IC50 at M. tuberculosis Dxr (IC50 (μM)) of 7.5 µM.
With `CCOP(=O)(CCCN(O)C(=O)c1ccccc1)OCC` [Compound 9a], the MIC is greater than 500 µg/mL in the assay on Mtb H37Rv (ATCC 27294) (read-out: MIC 7H9 (μg/mL)) and 31.2 µg/mL (≈ 99.1 µM) with Mtb H37Rv (ATCC 27294) (read-out: MIC GAST/Fe (μg/mL)).
On to `CC(=O)N(CCCP(=O)(O)O)OCc1ccc2ccccc2c1` [GSJ77], for which, in the assay on Mtb H37Rv (ATCC 27294) (read-out: Mtb MIC (ug/mL)), the MIC was no less than 200 µg/mL. In addition, the IC50 at M. tuberculosis Dxr (Mtb Dxr IC50 (ug/mL)) is 47.7 µM.
On to `CCOP(=O)(CCCN(O)C=O)OCC` [Compound 5c], for which the “MIC 7H9” value with Mtb H37Rv (ATCC 27294) is 250 µg/mL (≈ 1050 µM).
`CCOP(=O)(CCCN(OCc1cc(OC)cc(OC)c1)C(C)=O)OCC` [GSJ111]: the MIC with Mtb H37Rv (ATCC 27294) (read-out: Mtb MIC (ug/mL)) is greater than 400 µg/mL.
